Measurements as given in patent US7879861B2, “Combi-molecules having EGFR and DNA targeting properties” (priority 2005, dated 2011).
Read-outs that look alike come from different tables or passages of the source.

Assays:
[1] = system: DU145; test: Growth inhibition in androgen independent prostate cancer cell line; settings: Homo sapiens
[2] = system: LNCaPerbB2; test: 6 day growth inhibition assay, LNCaP panel; settings: Homo sapiens, 144 h, read-out: IC50, LNCaPerbB2 transfected cell line
[3] = molecular target: T1, EGFR (Homo sapiens, UniProt P00533); test: EGFR kinase assay (ELISA, PGT substrate phosphorylation); assay type: biochemical; parameters: endogenous in cells; settings: 10 min exposure; read-out: IC50, EGFR inhibitory potency, purified enzyme assay
[4] = Degradation in serum at 37° C. by HPLC; assay type: in vitro ADME; settings: 24 h incubation in serum at 37° C.; release of 2 eq. of amine taken for 100%
Protocol: (§1) The degradation of double-arm combi-triazenes 5-9 has been investigated by HPLC. […] The rates of decomposition of bis-triazenes 7, 8 and 9 were measured by fluorescence spectroscopy by monitoring the formation of 1 (excitation: 279 and emission: 451). The determined half-lives ranged from 2 h for 7 and 8 to 3 h 20 min for 9.

[5] = system: NIH3T3; test: Growth inhibition in isogenic NIH3T3 panel (double-arm combi-triazenes); assay type: cell-based; settings: Mus musculus, FIG. 14
[6] = system: NIH3T3/neu; test: as above; assay type: cell-based, mouse; settings: for IC50: Mus musculus, NIH3T3, FIG. 14; for fold selectivity for neu transfectant: vs NIH3T3
[7] = Rate of decomposition by fluorescence spectroscopy (formation of amine 1); assay type: physicochemical; settings: excitation 279, emission 451
Protocol: as §1

[8] = system: NIH3T3/Her14; test: Growth inhibition in isogenic NIH3T3 panel (double-arm combi-triazenes); assay type: cell-based, mouse; settings: for IC50: Mus musculus, NIH3T3, FIG. 14; for fold selectivity for EGFR transfectant: vs NIH3T3
[9] = system: MDA-MB-468 cells; test: Reversibility of antiproliferative effect, SRB assay; assay type: cell-based, human
Protocol: (§2) In vitro growth inhibition assay: To study the effect of the compounds on growth factor stimulated-proliferation, cells were grown to 70% of confluence in 48-well plates. […] Cell growth was measured using the sulforhodamine B (SRB) assay (24). Briefly, following drug treatment, cells were fixed using 50 μl of cold trichloroacetic acid (50%) for 60 min at 4° C., washed five times with tap water, and stained for 30 min at room temperature with SRB (0.4%) and dissolved in acetic acid (0.5%). The plates were rinsed five times with 1% acetic acid and allowed to air dry. The resulting colored residue was dissolved in 200 μl of Tris base (10 mM), and the optical density read for each well at 450 nm using a Bio-Rad microplate reader (model 2550). […] Cell growth was measured using SRB assay as described previously.

[10] = system: NIH3T3; test: Blockade of serum-stimulated growth, SRB assay (Table 1); assay type: cell-based; settings: Mus musculus, read-out: Inhibition of growth stimulation of NIH3T3
Protocol: (§3) In vitro growth inhibition assay: To study the effect of the compounds on growth factor stimulated-proliferation, cells were grown to 70% of confluence in 48-well plates. They were subsequently washed twice with PBS, incubated in serum-free medium for 18 h and exposed to each drug+growth factors (EGF, TGFα, PDGF or serum) for 72 h. Cell growth was measured using the sulforhodamine B (SRB) assay (24). Briefly, following drug treatment, cells were fixed using 50 μl of cold trichloroacetic acid (50%) for 60 min at 4° C., washed five times with tap water, and stained for 30 min at room temperature with SRB (0.4%) and dissolved in acetic acid (0.5%). The plates were rinsed five times with 1% acetic acid and allowed to air dry. The resulting colored residue was dissolved in 200 μl of Tris base (10 mM), and the optical density read for each well at 450 nm using a Bio-Rad microplate reader (model 2550). […] Cell growth was measured using SRB assay as described previously.

[11] = molecular target: T1, EGFR; test: EGFR kinase assay (ELISA, PGT substrate phosphorylation); assay type: biochemical; parameters: endogenous in cells; settings: Table 1, inhibition of EGFR kinase; read-out: EGFR Binding
Protocol: Kinase assays: The EGFR kinase assay is similar to the one described in previously published procedures (19, 20). Nunc Maxisorp 96-well plates were incubated overnight at 37° C. with 100 μl/well of 0.25 mg/ml poly (L-glutamic acid-L-tyrosine, 4:1) PGT in PBS. Excess PGT was removed and the plate was washed three times with wash buffer (Tween 20 (0.1%) in PBS). […] The compound was added and phosphorylation initiated by the addition of ATP 50 μM. After 8 min at room temperature with constant shaking, the reaction was terminated by aspiration of the reaction mixture and rinsing the plate four times with wash buffer. […] Antibody was removed by aspiration, and the plate washed four times with wash buffer.

[12] = system: A431; test: Inhibition of basal growth (Table 1); assay type: cell-based; settings: Homo sapiens, A-431
Protocol: as §3

[13] = molecular target: T2, NIH3T3neu (UniProt P04626, cells depend on it, species not given); test: Blockade of serum-stimulated growth, SRB assay (Table 1); assay type: cell-based, mouse; settings: serum-stimulated growth; read-out: Inhibition of growth stimulation of NIH3T3neu
T2 construct: other: serum-stimulated growth
Protocol: as §3

[14] = system: NIH3T3neu; test: as above; assay type: cell-based, mouse; settings: FIG. 12, 72 h
Protocol: as §3

[15] = system: MDA-MB-453 cells; test: Reversibility of antiproliferative effect, SRB assay; assay type: cell-based, human
Protocol: as §2

[16] = system: MDA-MB-468 cells; test: Annexin V binding (apoptosis), flow cytometry; assay type: cell-based, human; settings: for levels of apoptosis: 5 μM, 24, 48 and 72 h
Protocol: Annexin V Binding: Cells were grown in 6-well plates until confluence and then incubated with the compounds for 24 h, 48 and 72 h. The cells were then harvested, washed twice with PBS, and centrifuged. Cells (10^5) were treated with annexin V-FITC and propidium iodide (PI) using the Apoptosis Detection Kit (BD Bioscience Pharmingen, USA) and the supplier's protocol. Annexin V-FITC and PI binding were analyzed by flow cytometry. Data were collected using logarithmic amplification of both the FL1 (FITC) and FL2 (PI) channels. Quadrant analysis of co-ordinate dot plots was performed with CellQuest software. Unstained cells were used to adjust the photomultiplier voltage and for compensation setting adjustment in order to eliminate spectral overlap between the FL1 and FL2 signals.

[17] = system: human breast carcinoma MDA-MB-468; test: In vivo efficacy, MDA-MB-468 implanted in the mammary fat pad; parameters: species or system SCID mice
Protocol: In vivo studies: SCID mice were maintained as per McGill animal safety protocols. In a preliminary model, SCID mice housed in filtered cages were implanted subcutaneously (s.c.) with the human breast carcinoma MDA-MB-468 and treatment began when the tumors were palpable (8 mice/group). […] The tumor burdens were measured with a caliper and mice were weighed twice weekly. The study was later repeated with the MDA-MB-468 cells implanted in the mammary fat pad, a model that better mimics human breast carcinoma.

[18] = Water solubility; assay type: physicochemical
[19] = DU-145, 144 h, read-out: IC50, 6 day continued growth inhibition assay
[20] = DU-145, read-out: IC50, growth inhibition in DU145

T1 sequence (P00533 25-1210): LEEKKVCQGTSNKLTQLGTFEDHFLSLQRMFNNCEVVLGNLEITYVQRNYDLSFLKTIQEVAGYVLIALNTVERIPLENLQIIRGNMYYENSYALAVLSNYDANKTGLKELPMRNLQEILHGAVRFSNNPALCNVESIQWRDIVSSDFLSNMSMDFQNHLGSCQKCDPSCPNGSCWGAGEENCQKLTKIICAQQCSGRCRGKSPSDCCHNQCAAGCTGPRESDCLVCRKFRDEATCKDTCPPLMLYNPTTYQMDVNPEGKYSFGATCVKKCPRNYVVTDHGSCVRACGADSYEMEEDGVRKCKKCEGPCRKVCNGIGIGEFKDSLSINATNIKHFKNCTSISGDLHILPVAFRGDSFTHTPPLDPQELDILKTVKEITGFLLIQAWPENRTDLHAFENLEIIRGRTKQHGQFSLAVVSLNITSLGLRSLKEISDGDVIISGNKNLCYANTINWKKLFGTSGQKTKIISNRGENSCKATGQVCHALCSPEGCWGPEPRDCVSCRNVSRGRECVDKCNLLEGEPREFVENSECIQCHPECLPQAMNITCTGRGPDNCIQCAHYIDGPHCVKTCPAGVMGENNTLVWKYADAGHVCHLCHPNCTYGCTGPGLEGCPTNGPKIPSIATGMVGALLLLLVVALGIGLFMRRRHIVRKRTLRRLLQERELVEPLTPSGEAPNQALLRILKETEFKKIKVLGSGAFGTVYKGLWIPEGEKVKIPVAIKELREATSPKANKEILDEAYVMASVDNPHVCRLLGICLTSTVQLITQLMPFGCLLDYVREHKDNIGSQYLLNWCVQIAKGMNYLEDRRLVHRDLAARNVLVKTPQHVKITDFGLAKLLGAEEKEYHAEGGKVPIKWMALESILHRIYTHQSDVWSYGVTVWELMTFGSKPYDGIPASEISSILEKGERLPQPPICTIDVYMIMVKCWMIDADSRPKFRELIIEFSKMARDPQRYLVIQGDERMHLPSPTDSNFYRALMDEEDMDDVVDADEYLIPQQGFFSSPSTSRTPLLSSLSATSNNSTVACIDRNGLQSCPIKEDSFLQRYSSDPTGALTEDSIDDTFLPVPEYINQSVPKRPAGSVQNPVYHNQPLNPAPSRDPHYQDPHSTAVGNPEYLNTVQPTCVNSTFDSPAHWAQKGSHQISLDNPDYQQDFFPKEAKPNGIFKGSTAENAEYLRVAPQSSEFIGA

Clc1cccc(Nc2ncnc3ccc(N=NNCc4ccccc4CNN=Nc4ccc5ncnc(Nc6cccc(Cl)c6)c5c4)cc23)c1 [Double-arm combi-triazene 5]
IC50 [1, 19]: 12 µM | IC50 [2]: 18 µM | IC50 [3]: 7 µM | release of parent amine 1 [4]: negligible quantities

Clc1cccc(Nc2ncnc3ccc(N=NNCc4ccc(CNN=Nc5ccc6ncnc(Nc7cccc(Cl)c7)c6c5)cc4)cc23)c1 [Double-arm combi-triazene 6]
IC50 [1, 19]: 35 µM | IC50 [2]: 37 µM | IC50 [3]: > 10 µM

Clc1cccc(Nc2ncnc3ccc(N=NNCCN4CCN(CCNN=Nc5ccc6ncnc(Nc7cccc(Cl)c7)c6c5)CC4)cc23)c1 [Double-arm combi-triazene 7]
IC50 [1, 19]: 1.8 µM | IC50 [1, 20]: 2.8 µM | IC50 [5]: 44 µM | IC50 [2]: 9 µM | IC50 [3]: 1 µM | IC50 [6]: 0.4 µM | fold selectivity for neu transfectant [6]: 110 fold | half-life [7]: 2 h | IC50 [8]: 0.5 µM | fold selectivity for EGFR transfectant [8]: 88 fold

CN(CCNN=Nc1ccc2ncnc(Nc3cccc(Cl)c3)c2c1)CCN(C)CCNN=Nc1ccc2ncnc(Nc3cccc(Cl)c3)c2c1 [Double-arm combi-triazene 8]
IC50 [1, 19]: 3.2 µM | IC50 [1, 20]: 1 µM | IC50 [5]: 0.1 µM | IC50 [2]: 6 µM | IC50 [3]: 0.05 µM | IC50 [6]: 0.02 µM | half-life [7]: 2 h | IC50 [8]: 0.02 µM | fold more active ([8]; compared with double-arm combi-triazene 9): 20 fold

CN(CCNN=Nc1ccc2ncnc(Nc3cccc(Cl)c3)c2c1)CCNN=Nc1ccc2ncnc(Nc3cccc(Cl)c3)c2c1 [Double-arm combi-triazene 9]
IC50 [1, 19]: 2.3 µM | IC50 [1, 20]: 2.6 µM | IC50 [5]: 2.3 µM | IC50 [2]: 11 µM | IC50 [3]: 0.003 µM | fold selectivity for neu transfectant [6]: 7 fold | IC50 [8]: 0.5 µM | fold selectivity for EGFR transfectant [8]: 4 fold

Nc1ccc2ncnc(Nc3cccc(Cl)c3)c2c1 [FD105, reference compound]
IC50 ([9]; MDA-MB-468, SRB, read-out: IC50, growth inhibition, 120 h continuous exposure): 23.6 µM | IC50 ([9]; read-out: IC50, growth inhibition, 2 h exposure followed by 120 h recovery, MDA-MB-468, SRB): 192 µM

CN(CCN(C)N=Nc1ccc2ncnc(Nc3cccc(Cl)c3)c2c1)CCN(C)N=Nc1ccc2ncnc(Nc3cccc(Cl)c3)c2c1 [JCF29]
IC50 [10]: 186 µM | IC50 [11]: 0.036 µM | IC50 [12]: 38.1 µM | GI50 [13]: 43.3 µM

CN(CCN(C)N=Nc1ccc2ncnc(Nc3cccc(Cl)c3)c2c1)N=Nc1ccc2ncnc(Nc3cccc(Cl)c3)c2c1 [JFC16]
IC50 [10]: 137 µM | IC50 [11]: 0.29 µM | GI50 [13]: 23.1 µM

CN(C)CCN(C)N=Nc1ccc2ncnc(Nc3cccc(Cl)c3)c2c1 [JFC30]
IC50 [10]: 13.9 µM | IC50 [11]: 0.014 µM | IC50 [12]: 18.9 µM | GI50 [13]: 1.25 µM

CN(CCOCCN(C)N=Nc1ccc2ncnc(Nc3cccc(Cl)c3)c2c1)N=Nc1ccc2ncnc(Nc3cccc(Cl)c3)c2c1 [JFC31]
IC50 [10]: 4.65 µM | IC50 [11]: 0.003 µM | IC50 [12]: 4.79 µM | GI50 [13]: < 0.75 µM | selectivity for NIH3T3 HER2 transfected cells in isogenic model [14]: significant selectivity

COCCN(C)N=Nc1ccc2ncnc(Nc3cccc(Cl)c3)c2c1 [JFC32]
IC50 [10]: 112 µM | IC50 [11]: 0.013 µM | IC50 [12]: 23.4 µM | GI50 [13]: 1.65 µM

C=CC(=O)Nc1ccc2ncnc(Nc3cccc(Br)c3)c2c1 [PD168393, reference compound]
IC50 ([15]; Homo sapiens, MDA-MB-453, 120 h, MDA-MB-453, SRB, read-out: IC50, growth inhibition, 120 h continuous exposure): 1.81 µM | IC50 ([15]; Homo sapiens, MDA-MB-453, read-out: IC50, growth inhibition, 2 h exposure followed by 120 h recovery, MDA-MB-453, SRB): 10.3 µM | IC50 ([15]; MDA-MB-453, SRB, read-out: IC50, growth inhibition, 120 h continuous exposure): 1.71 µM | IC50 ([15]; read-out: IC50, growth inhibition, 2 h exposure followed by 120 h recovery, MDA-MB-453, SRB): 11.5 µM | levels of apoptosis [16]: barely detectable levels of apoptosis

Nc1ccc2ncnc(Nc3cccc(Br)c3)c2c1 [ZR01, reference compound]
levels of apoptosis [16]: barely detectable levels of apoptosis

ClCCNc1ccc2ncnc(Nc3cccc(Cl)c3)c2c1 [ZR2003]
in vivo antiproliferative activity ([17]; 50 mg/kg i.p. every 3-4 days, mammary fat pad): strong antiproliferative activity | in vivo potency compared with ZR2002 ([17]; mouse, in vivo): significantly more potent | in vivo potency compared with FD105 ([17]; same dose, p<0.05): significant superior potency | IC50 ([9]; Homo sapiens, MDA-MB-468, 120 h, read-out: IC50, growth inhibition, 120 h continuous exposure, MDA-MB-468, SRB): 0.51 µM | IC50 ([9]; Homo sapiens, MDA-MB-468, read-out: IC50, growth inhibition, 2 h exposure followed by 120 h recovery, MDA-MB-468, SRB): 4.81 µM | water solubility (in words) [18]: more hydro-soluble | concentration at which detectable levels of apoptosis start [16]: 12 µM | cell death by apoptosis compared with FD105 ([16]; 12 μM, 48 h): significantly higher levels of cell death by apoptosis
